In the experiment the target is GR complex. Description: [35S]TBPS binding assay (inhibition of [35S]TBPS binding, cerebral cortex P2 homogenate). Also on record: species or system rat. Particulars: for IC50: 2 nM [35S]TBPS, rat cerebral cortex P2 homogenate; for IMAX: maximum inhibition of [35S]TBPS binding. Here is the method: We performed several experiments to determine the nature of the modulation of [^35S]TBPS as affected by the compounds of the invention.
These procedures were performed as follows:
Brains from male Sprague-Dawley rats were removed immediately following sacrifice and the cerebral cortices dissected over ice. […] Briefly, the cortices were gently homogenized in 0.32 M sucrose followed by centrifugation at 1000 x g for 10 minutes. The supernatant was collected and centrifuged at 9000 x g for 20 minutes. The resultant P2 pellet was suspended as a 10% (original wet weight/volume) suspension in 50 mM Na/K phosphate buffer (pH 7.4) 200 mM NaCl to form the homogenate.
One hundred microliter […] aliquots of the P2 homogenate (0.5 milligrams (mg) protein) were incubated with 2 nanomolar (nM) [^35S]TBPS (70-110 curies/millimole; New England Nuclear, Boston, MA) in the presence or absence of the naturally occurring steroids or their synthetic derivatives to be tested. The tested compounds were dissolved in dimethylsulfoxide (Baker Chem. Co., Phillipsbury, NJ) and added to the incubation mixture in 5 µL aliquots. The incubation mixture was brought to a final volume of 1 mL with buffer. Non-specific binding was defined as binding in the presence of […] TBPS. The effect and specificity of GABA (Sigma Chem. Co., St. Louis, MO) was evaluated by performing all assays in the presence of GABA plus (+)bicuculline (Sigma Chem. Co.). maintained at 25°C for 90 minutes (steady state conditions) were terminated by rapid filtration through glass fiber filters (No. 32, Schleicher and Schuell, Keene, NH). Filter-bound radioactivity was quantitated by liquid scintillation spectrophotometry.
Various compounds were screened to determine their potential as modulators of [^35S]TBPS binding in vitro. These assays were performed in accordance with the above discussed procedures. […] It is an indication of a compound's in vitro potency. Maximum inhibition is an indication of a compound's in vitro efficacy.

The mark [1] stands for this setting: listed as 3α-Hydroxy-3β-(3'-hydroxyphenyl)-ethynyl-5β-pregnan-20-one.

As to `C#C[C@@]1(O)CC[C@@]2(C)[C@H](CC[C@@H]3[C@@H]2CC[C@]2(C)[C@@H](C(=O)Cn4cncn4)CC[C@@H]32)C1` [3β-ethynyl-3α-hydroxy-21-(1',2',4'-triazoyl)-5β-pregnan-20-one], the IC50 (as a rule, the point on the concentration scale where inhibition reaches its midpoint) is 127 nM and the IMAX stood at 98%.
Taken in the same sequence, the figures for `C[C@]12CC[C@@H](O)C[C@@H]1CC[C@@H]1[C@@H]2CC[C@]2(C)[C@@H](C(=O)CSS(=O)(=O)[O-])CC[C@@H]12.[Na+]` [Sodium S-(3α-hydroxy-5α-pregnan-20-on-21-yl) thiosulfate] were 133 nM and 90%.
For `CC(=O)[C@H]1CC[C@H]2[C@@H]3CC[C@@H]4C[C@@](O)(C#Cc5ccc(N(C)C)cc5)CC[C@]4(C)[C@H]3CC[C@]12C` [3β-(4'-dimethylaminophenyl)ethynyl-3α-hydroxy-5β-pregnan-20-one], in that order: 28 nM and 77%.
For `C[C@]12CC[C@H]3[C@@H](CC[C@@H]4C[C@@](O)(C#CCCO)CC[C@@H]43)[C@@H]1CC[C@@H]2C(=O)Cn1ccnn1` [3α-hydroxy-3β-(4-hydroxybutyn-1-yl)-21-(1H-1,2,3-triazol-1-yl)-5β-19-norpregnan-20-one], the IC50 was 124 nM and the IMAX was determined as 95%.
On to `CC(=O)[C@H]1CC[C@H]2[C@@H]3CC[C@@H]4C[C@@](O)(C#Cc5cccc(O)c5)CC[C@]4(C)[C@H]3CC[C@]12C` [3β-(3'-hydroxyphenylethynyl)-3α-hydroxy-5β-pregnan-20-one], for which the IC50 was found to be 407 nM and the IMAX is recorded as 99%. Under setting [1], this molecule registered an IC50 of 619 nM and an IMAX of 98%.
`CC12CC(N3CCOCC3)C(O)CC1CCC1C2CCC2(C)C(C(=O)Cn3cncn3)CCC12` (stereo not drawn) [3α-Hydroxy-2β-morpholinyl-21-[1'2'4'-triazolyl)]-5α-pregnan-20-one] gave an IC50 of 1550 nM and an IMAX of 97%.
Taken in the same sequence, the figures for `CC(=O)[C@H]1CC[C@H]2[C@@H]3CC[C@@H]4C[C@@](O)(c5ccccc5)CC[C@]4(C)[C@H]3CC[C@]12C` [3α-Hydroxy-3β-phenyl-5β-pregnan-20-one, 3α-hydroxy-3β-phenyl-5β-pregnan-20-one] were 382 nM and 86%.
Turning to `C[C@]12CC[C@@H](O)C[C@H]1CC[C@@H]1[C@@H]2CC[C@]2(C)[C@@H](C(=O)Cn3cnc4ncncc43)CC[C@@H]12` [3α-hydroxy-21-(7'H-purin-7'-yl)-5β-pregnan-20-one], the IC50 was found to be 430 nM and the IMAX is 71%.
For `CC12CCC(O)CC1CCC1C2CCC2(C)C(C(=O)Cn3ccnc3C=O)CCC12` (stereo not drawn) [3α-hydroxy-21-[1H-(2'-formyl)imidazol-1-yl]-5-pregnan-20-one], in that order: 213 nM and 81%.
For `Cc1nccn1CC(=O)[C@H]1CC[C@H]2[C@@H]3CC[C@@H]4C[C@H](O)CC[C@]4(C)[C@H]3CC[C@]12C` [3α-hydroxy-21-[1H-(2-methyl)imidazol-1-yl)-5β-pregnan-20-one], the IC50 stood at 222 nM and the IMAX was determined as 95%.
Molecule `COCC#C[C@@]1(O)CC[C@@]2(C)[C@H](CC[C@@H]3[C@@H]2CC[C@]2(C)[C@@H](C(C)=O)CC[C@@H]32)C1` [3α-Hydroxy-3β-(3-methoxy-1-propynyl)-5β-pregnan-20-one] gave an IMAX of 105%.
`CC(=O)[C@H]1CC[C@H]2[C@@H]3CC[C@@H]4C[C@@](O)(C#Cc5ccc(Cl)cc5)CC[C@]4(C)[C@H]3CC[C@]12C` [3β-(4'-chlorophenylethynyl)-3α-hydroxy-5β-pregnan-20-one] came in with an IC50 of 58 nM and an IMAX of 89%.
Taken in the same sequence, the figures for `CC(=O)c1ccc(C#CC2(O)CCC3C(CCC4C3CCC3(C)C(C(C)=O)CCC43)C2)cc1` (stereo not drawn) [3β-(4'-Acetylphenyl)ethynyl-3α-hydroxy-19-nor-20-one] were 14 nM and 103%.
Taken in the same sequence, the figures for `CC(=O)C1CCC2C3CCC4CC(O)(C#CC=O)CCC4(C)C3CCC12C` (stereo not drawn) [3α-Hydroxy-3β-(3'-oxopropynyl)-5β-pregnan-20-one] were 1720 nM and 76%.
For `C[C@@]1(O)CC[C@@]2(C)[C@@H](CC[C@@H]3[C@@H]2CC[C@]2(C)[C@@H](C(=O)Cn4ccnn4)CC[C@@H]32)C1` [3α-hydroxy-3β-methyl-21-(1',2',3'-triazol-1'-yl)-5α-pregnan-20-one], in that order: 136 nM and 99%.
Turning to `CC(=O)[C@H]1CC[C@H]2[C@@H]3CCC4=CC(=O)CC[C@]4(C)[C@H]3CC[C@]12C` [Progesterone, reference compound], the IC50 was 5200 nM and the IMAX was 100%.
For `CC(=O)c1ccc(C#CC2(O)CCC3C(CCC4C3CCC3(C)C(C(C)=O)CCC43)C2)cc1` (stereo not drawn) [3β-(4'-Acetylphenyl)ethynyl-3α-hydroxy-5β-19-norpregnan-20-o] [3β-(4'-Acetylphenylethynyl)-3α-hydroxy-19-nor-5β-pregnan-20-one], in that order: 6 nM and 90%.
Taken in the same sequence, the figures for `CC(=O)C1CCC2C3CCC4CC(O)(C#Cc5ccc(O)cc5)CCC4(C)C3CCC12C` (stereo not drawn) [3β-(4'-Hydroxyphenylethynyl)-3α-hydroxy-5β-pregnan-20-one] were 1550 nM and 88%.
For `C[C@]12CC[C@](O)(C#CCCO)C[C@H]1CC[C@@H]1[C@@H]2CC[C@]2(C)[C@@H](C(=O)Cn3cnnn3)CC[C@@H]12` [3α-hydroxy-3β-(4-hydroxybutyn-1-yl)-21-(tetrazol-1-yl)-5β-pregnan-20-one], in that order: 93 nM and 101%.
`C[C@]12CC[C@@H](O)C[C@H]1CC[C@@H]1[C@@H]2CC[C@]2(C)[C@@H](C(=O)Cn3ncnn3)CC[C@@H]12` [3α-Hydroxy-21-(2'H-1,2,3,4-tetrazol-2'-yl)-5β-pregnan-20-one]: the half-maximal inhibitory concentration (IC50) was determined as 46 nM and the IMAX turned out to be 78%.
Taken in the same sequence, the figures for `CC(=O)[C@H]1CC[C@H]2[C@@H]3CC[C@@H]4C[C@@](O)(C#Cc5ccc(C(N)=O)cc5)CC[C@]4(C)[C@H]3CC[C@]12C` [3β-(4'-Carboxamidopheny)ethynyl-3α-hydroxy-5β-pregnan-20-one] were 2240 nM and 98%.
Taken in the same sequence, the figures for `CC(=O)[C@H]1CC[C@H]2[C@@H]3CC[C@@H]4C[C@@](O)(C#CCCCCO)CC[C@]4(C)[C@H]3CC[C@]12C` [3β-(6-hydroxy-1-hexynyl)-3α-hydroxy-5β-pregnan-20-one] were 222 nM and 99%.
`C[C@]12CC[C@@H](O)C[C@H]1CC[C@@H]1[C@@H]2CC[C@]2(C)[C@@H](C(=O)Cn3cncn3)CC[C@@H]12` [3α-Hydroxy-21-(1',2',4'-triazol-1-yl)-5β-pregnan-20-one] showed an IMAX of 60%.
In turn, `CCOC(=O)c1ccc(C#CC2(O)CCC3(C)C(CCC4C3CCC3(C)C(C(C)=O)CCC43)C2)cc1` (stereo not drawn) [3β-(4'-Carboxyphenylethynyl)-3α-hydroxy-5α-pregnan-20-one ethyl ester] came in with a concentration for half-maximal inhibition (IC50) of 7 nM and an IMAX of 79%.
For `C[C@]12CC[C@H]3[C@@H](CC[C@@H]4C[C@@](O)(C#CCCO)CC[C@@H]43)[C@@H]1CC[C@@H]2C(=O)Cn1nccn1` [3α-hydroxy-3β-(4-hydroxybutyn-1-yl)-21-(2H-1,2,3-triazol-2-yl)-5β-19-norpregnan-20-one], in that order: 56 nM and 93%.
In turn, `COc1ccc(C#CC2(O)CCC3(C)C(CCC4C3CCC3(C)C(C(C)=O)CCC43)C2)cc1OC` (stereo not drawn) [3β-(3',4'-Dimethoxyphenylethynyl)-3α-hydroxy-5β-pregnan-20-one] displayed an IMAX of 106%.
`CC12CCC(O)CC1CCC1C2CCC2(C)C(C(=O)Cn3cnc4ccccc43)CCC12` (stereo not drawn) [3α-hydroxy-21-(1'-benzimidazolyl)5β-pregnan-20-one]: the IC50 stood at 53 nM and the IMAX turned out to be 100%.
For `CC(=O)[C@H]1CC[C@H]2[C@@H]3CC[C@@H]4C[C@@](O)(C#CCN(C)C)CC[C@]4(C)[C@H]3CC[C@]12C` [3β-[3'-(N,N-dimethylamino)-1'-propynyl]-3α-hydroxy-5β-pregnan-20-one], in that order: 1420 nM and 100%.
For `COc1ccc(CC[C@@]2(O)CC[C@@]3(C)[C@H](CC[C@@H]4[C@@H]3CC[C@]3(C)[C@@H](C(C)=O)CC[C@@H]43)C2)cc1OC` [3β-(3',4'-Dimethoxyphenylethyl)-3α-hydroxy-5β-pregnan-20-one], in that order: 507 nM and 66%.
The molecule `CCOC(=O)c1ccc(C#C[C@@]2(O)CC[C@@]3(C)[C@H](CC[C@@H]4[C@@H]3CC[C@]3(C)[C@@H](C(C)=O)CC[C@@H]43)C2)cc1` [3α-hydroxy-3β-(4'-carboxyphenylethynyl)-5β-pregnan-20-one ethyl ester] came in with an IMAX of 98%.

The record behind these values is patent EP1038880B1, “Androstanes and pregnanes for allosteric modulation of GABA receptor” (priority 1994, dated 1995).
